In patent publication US20130108573A1, “Bile Acid Recycling Inhibitors for Treatment of Hypercholemia and Cholestatic Liver Disease” (Lumena Pharmaceuticals, Inc., priority 2011, published 2013):
Marks after values point to notes of the source that are not given here.

Assays:
Dog Serum Bile Acids [1] = assay: Duration of action of LUM001 on dog serum bile acids, Method 1: two meals for extended SBA elevation; format: in vivo, beagle dogs; conditions: for Serum Bile Acid, Mean: dogs n = 6, full meal at 0 hr, dosed at 1 hr, one-half meal at 4 hr
Experimental: (§1) LUM001 was dissolved in water at concentrations that required the administration of 0.2 ml/kg of solution. Solutions were placed into gelatin capsules, Torpac Inc., size 13 Batch 594, East Hanover N.J., and administered orally.
(§2) Male beagle dogs were obtained from Covance Research Products, Cumberland Va. or Marshall Farms USA, Inc., North Rose N.Y. A total of 20 dogs, 1 to 5 years old, 6.8 to 15.6 kg body weight, were used in these experiments. The dogs were conditioned to a 12 hour light/dark cycle and maintained on a feeding restriction of 1 hour per day access to food (Richman Standard Certified Canine Diet #5007, PMI Nutrition, Inc., St Louis Mo.) from 7 to 8 AM. They were trained to eat a special meal promptly within 20 minutes when presented (1 can. 397 g, Evanger's 100% Beef for Dogs, Evanger's Dog and Cat Food Co., Inc., Wheeling Ill., mixed with 50 g of sharp cheddar cheese.).
(§3) SBA was measured by an enzymatic assay. SBA values are expressed as μg of total bile acids/ml of serum.
(§4) In dogs a single experimental meal produces a postprandial rise in SBA that is elevated to a peak at 1 hour after feeding and constant for an additional 3 hours. Previous experiments (2) indicate that LUM001 remains active for more than 4.5 hours. To measure the duration of action of an ASBT inhibitor using postprandial SBA levels requires that in the control situation the SBA levels remain elevated and constant for the entire period of compound action, or that the compound be administered long before the postprandial rise occurs, and remain active in the empty digestive system for long periods before feeding. Accordingly, two alternative methods were used to provide a window of constant SBA elevation that could be used to measure the duration of action of ASBT inhibitors.
LUM001 was administered at 0.05 and 0.2 mg/kg, p.o. to 6 dogs 1 hr after feeding them a meal. At 4 hours after the meal was offered, a second meal of ½ the size of the first meal was offered. It too was consumed as promptly and thoroughly as the first meal, and provided an extended, constant SBA plateau. Blood samples for SBA measurement were taken at 0, 1, 1.5, 2, 4, 4.5, 5, 5.5, 6, 6.5, 7, 7.5 and 8 hours from the time of offering the first meal. Mean SBA levels were compared to the mean SBA level at 1 hour, each dog serving as its own control.

Dog Serum Bile Acids [2] = assay: Duration of action of LUM001 on dog serum bile acids, Method 2: one meal, extended interval between dosing and feeding; format: in vivo, beagle dogs; conditions: for Serum Bile Acid, Mean: dogs n = 6, 0.2 mg/kg p.o., dosing time 0 hr, feeding time 2 hr
Experimental: as §1, §2, §3, §4
Alternatively, 6 dogs were dosed with water or LUM001, at 0.05 mg/kg, p.o. at 1.5 hours prior to being fed, or 0.05, or 0.2 mg/kg, at 2 hours prior to feeding. This moved the elevated SBA plateau out in time from the dose point. Blood samples for SBA measurement were taken immediately before dosing (0 or 0.5 hr), at feeding (2 hr), 2.5, 3, 4 and 5 hours after feeding. This allowed detection of activity out to 5.5 and 6 hours after dosing without feeding the dogs a second time. Mean SBA levels were compared to the corresponding mean SBA levels in water treated controls.

[3] = Pharmacokinetics of LUM001 in subjects under 18 years (study NB-00-02-014): systemic exposure; format: in vivo, human; conditions: for Average serum drug exposure: day eight
Experimental: LUM001 has been administered to forty patients under the age of 18 years old. […] The drug was administered once-a-day (QD) in the morning for fourteen days. […] These doses are similar to those using to treat patients with cholestatic diseases.

[4] = Pediatric multiple-dose study of LUM-001: tolerability; format: in vivo, human; conditions: 2 weeks daily up to 5 mg q.d., 39 treated subjects aged 10-17
Text: (39 treated subjects aged 10-17).

With `CCCCC1(CCCC)CS(=O)(=O)c2ccc(N(C)C)cc2[C@@H](c2ccc(OCc3ccc(C[N+]45CCN(CC4)CC5)cc3)cc2)[C@H]1O` [LUM001] the “Serum Bile Acid, Mean” value (Dog Serum Bile Acids [1]; 0.05 mg/kg p.o., time 0 hr) was 1.4 µg/mL, the “Serum Bile Acid, Mean” value (Dog Serum Bile Acids [1]; 0.05 mg/kg p.o., time 1 hr) was 9.2 µg/mL and the “Serum Bile Acid, Mean” value (Dog Serum Bile Acids [1]; 0.05 mg/kg p.o., time 1.5 hr) was 9.6 µg/mL. For the same molecule, the “Serum Bile Acid, Mean” value (Dog Serum Bile Acids [1]; 0.05 mg/kg p.o., time 2 hr) was 6.7 µg/mL, the “Serum Bile Acid, Mean” value (Dog Serum Bile Acids [1]; 0.05 mg/kg p.o., time 4 hr) was 5.1* μg/ml and the “Serum Bile Acid, Mean” value (Dog Serum Bile Acids [1]; 0.05 mg/kg p.o., time 4.5 hr) was 6.4 µg/mL. For the same molecule, the “Serum Bile Acid, Mean” value (Dog Serum Bile Acids [1]; 0.05 mg/kg p.o., time 5 hr) was 7.0 µg/mL, the “Serum Bile Acid, Mean” value (Dog Serum Bile Acids [1]; 0.05 mg/kg p.o., time 6 hr) was 7.0 µg/mL and the “Serum Bile Acid, Mean” value (Dog Serum Bile Acids [1]; 0.05 mg/kg p.o., time 7 hr) was 7.4 µg/mL. For the same molecule, the “Serum Bile Acid, Mean” value (Dog Serum Bile Acids [1]; 0.05 mg/kg p.o., time 8 hr) was 6.5 µg/mL, the “Serum Bile Acid, Mean” value (Dog Serum Bile Acids [1]; 0.2 mg/kg p.o., time 0 hr) was 1.3 µg/mL and the “Serum Bile Acid, Mean” value (Dog Serum Bile Acids [1]; 0.2 mg/kg p.o., time 1 hr) was 11.1 µg/mL. For the same molecule, the “Serum Bile Acid, Mean” value (Dog Serum Bile Acids [1]; 0.2 mg/kg p.o., time 1.5 hr) was 9.1 µg/mL, the “Serum Bile Acid, Mean” value (Dog Serum Bile Acids [1]; 0.2 mg/kg p.o., time 2 hr) was 3.8* μg/ml and the “Serum Bile Acid, Mean” value (Dog Serum Bile Acids [1]; 0.2 mg/kg p.o., time 4 hr) was 2.5* μg/ml. The “Serum Bile Acid, Mean” value (Dog Serum Bile Acids [1]; 0.2 mg/kg p.o., time 4.5 hr) was 3.3* μg/ml, the “Serum Bile Acid, Mean” value (Dog Serum Bile Acids [1]; 0.2 mg/kg p.o., time 5 hr) was 3.1* μg/ml and the “Serum Bile Acid, Mean” value (Dog Serum Bile Acids [1]; 0.2 mg/kg p.o., time 6 hr) was 3.6* μg/ml. The “Serum Bile Acid, Mean” value (Dog Serum Bile Acids [1]; 0.2 mg/kg p.o., time 7 hr) was 3.9* μg/ml, the “Serum Bile Acid, Mean” value (Dog Serum Bile Acids [1]; 0.2 mg/kg p.o., time 8 hr) was 5.8* μg/ml and the “Time after dosing beyond which the significant SBA decrease was not sustained” value (Dog Serum Bile Acids [1]; dogs, 0.05 mg/kg orally 1 hour after feeding) was no more than 3 h. For the same molecule, the “Time serum bile acid levels remained significantly lowered” value (Dog Serum Bile Acids [1]; dogs, 0.2 mg/kg orally 1 hour after feeding) was “at least 6 hours”, the “Serum Bile Acid, Mean” value (Dog Serum Bile Acids [2]; time 0 hr) was 1.3 µg/mL and the “Serum Bile Acid, Mean” value (Dog Serum Bile Acids [2]; time 2 hr) was 1.7 µg/mL. The “Serum Bile Acid, Mean” value (Dog Serum Bile Acids [2]; time 5 hr) was 7.9* μg/ml, the “Time after feeding for which a significant SBA effect was sustained” value (Dog Serum Bile Acids [2]; dogs, 0.2 mg/kg administered 2 hours prior to feeding) was 2 to 3 h and the “Systemic exposure (absorption) of LUM001” value ([3]; patients under the age of 18, once-a-day in the morning for fourteen days, measured on day eight) was “minimally absorbed”. For the same molecule, the “Average serum drug exposure” value ([3]; subject 0304, LUM001 1.0 mg QD (24.3 μg/kg)) was 0.0 ng/mL, the “Average serum drug exposure” value ([3]; subject 0309, LUM001 1.0 mg QD (35.0 μg/kg)) was 0.0 ng/mL and the Tolerability [4] was “well-tolerated”.
